Experiments:
[1] = test system: Echinochloa oryzoides (Ard.) Fritsch.; experiment: Preemergence weed control under flooded paddy conditions, ECHORC (Watergrass (Calif.)); assay type: in vivo; conditions: preemergence, flooded paddy, rated three to four weeks after treatment
Cyperus iria = experiment: Preemergence weed control under flooded paddy conditions, CYPIR (Rice Flatsedge); assay type: in vivo; conditions: preemergence, flooded paddy, rated three to four weeks after treatment
[2] = test system: Cyperus serotinus, Rottb.; experiment: Preemergence weed control under flooded paddy conditions, CYPSE (Flatsedge); assay type: in vivo; conditions: preemergence, rated three to four weeks after treatment
[3] = test system: Monochoria vaginalis, Presl.; experiment: Preemergence weed control under flooded paddy conditions, MOOVA (Monochoria); assay type: in vivo; conditions: preemergence, flooded paddy, rated three to four weeks after treatment
Sagittaria pygmaea, L. = experiment: Preemergence weed control under flooded paddy conditions, SAGPY (Arrowhead (Pygmaea)); assay type: in vivo; conditions: preemergence, flooded paddy, rated three to four weeks after treatment
[4] = test system: Oryza sativa, (L.) Tebonnet; experiment: Rice tolerance to post-transplant applications under flooded paddy conditions (Example 187), ORYSAT (Rice, Tebonnet); conditions: rated three to four weeks after treatment

SMILES | ECHORC herbicidal rating ([1]; 0.0320 kg/ha) | ECHORC herbicidal rating ([1]; 0.0620 kg/ha) | ECHORC herbicidal rating ([1]; 0.1250 kg/ha) | ECHORC herbicidal rating ([1]; 0.2500 kg/ha) | CYPIR herbicidal rating (Cyperus iria; 0.0320 kg/ha) | CYPIR herbicidal rating (Cyperus iria; 0.0620 kg/ha) | CYPIR herbicidal rating (Cyperus iria; 0.1250 kg/ha) | CYPIR herbicidal rating (Cyperus iria; 0.2500 kg/ha) | MOOVA herbicidal rating ([3]; 0.0320 kg/ha) | MOOVA herbicidal rating ([3]; 0.0620 kg/ha) | MOOVA herbicidal rating ([3]; 0.1250 kg/ha) | MOOVA herbicidal rating ([3]; 0.2500 kg/ha) | SAGPY herbicidal rating (Sagittaria pygmaea, L.; 0.0320 kg/ha) | SAGPY herbicidal rating (Sagittaria pygmaea, L.; 0.0620 kg/ha) | SAGPY herbicidal rating (Sagittaria pygmaea, L.; 0.1250 kg/ha) | SAGPY herbicidal rating (Sagittaria pygmaea, L.; 0.2500 kg/ha) | ORYSAT herbicidal rating (rice tolerance) ([4]; 0.0320 kg/ha) | ORYSAT herbicidal rating (rice tolerance) ([4]; 0.0620 kg/ha) | ORYSAT herbicidal rating (rice tolerance) ([4]; 0.1250 kg/ha) | ORYSAT herbicidal rating (rice tolerance) ([4]; 0.2500 kg/ha) | further results
Cn1c(C(F)(F)F)cc(=O)n(-c2ccc3snc(C(C)(C)C(=O)OCc4ccco4)c3c2)c1=O [Example 487, 1,2-Benzisothiazole-3-acetic acid, 5-[3,6-dihydro-3-methyl-2,6-dioxo-4-(trifluoromethyl)-1(2H)-pyrimidinyl]-alpha,alpha-dimethyl-, furfuryl ester] | 6.0 | 7.0 | 7.0 | 9.0 | 4.0 | 5.0 | 6.0 | 9.0 | 7.0 | 9.0 | 9.0 | 9.0 | 4.0 | 5.0 | 6.0 | 7.0 | 2.0 | 3.0 | 6.0 | 7.0 | CYPSE herbicidal rating ([2]; 0.2500 kg/ha): 3.0
Cn1c(C(F)(F)F)cc(=O)n(-c2ccc3snc(C(C)(C)C(=O)NS(C)(=O)=O)c3c2)c1=O [Example 488, 1,2-Benzisothiazole-3-acetamide, 5-[3,6-dihydro-3-methyl-2,6-dioxo-4-(trifluoromethyl)-1(2H)-pyrimidinyl]-alpha,alpha-dimethyl-N-(methylsulfonyl)-] | 0.0 | 0.0 | 0.0 | 0.0 | 3.0 | 3.0 | 4.0 | 5.0 | 7.0 | 9.0 | 9.0 | 9.0 | 0.0 | 0.0 | 0.0 | 0.0 | 3.0 | 3.0 | 4.0 | 4.0 | CYPSE herbicidal rating ([2]; 0.0620 kg/ha): 0.0; CYPSE herbicidal rating ([2]; 0.1250 kg/ha): 0.0
CC(C)OC(=O)C(C)(C)c1nsc2ccc(-n3c(=O)cc(C(F)(F)F)n(C)c3=O)cc12 [Example 489, 1,2-Benzisothiazole-3-acetic acid, 5-[3,6-dihydro-3-methyl-2,6-dioxo-4-(trifluoromethyl)-1(2H)-pyrimidinyl]-alpha,alpha-dimethyl-, isopropyl ester] | 7.0 | 7.0 | 9.0 | 9.0 | 6.0 | 9.0 | 9.0 | 9.0 | 9.0 | 9.0 | 9.0 | 9.0 | 6.0 | 9.0 | 9.0 | 9.0 | 5.0 | 6.0 | 6.0 | 6.0 | CYPSE herbicidal rating ([2]; 0.0320 kg/ha): 6.0; CYPSE herbicidal rating ([2]; 0.0620 kg/ha): 7.0; CYPSE herbicidal rating ([2]; 0.1250 kg/ha): 9.0; CYPSE herbicidal rating ([2]; 0.2500 kg/ha): 9.0
COC(=O)C(C)(C)c1nsc2ccc(-n3c(=O)cc(C(F)(F)F)n(C)c3=O)cc12 [Example 490, 1,2-Benzisothiazole-3-acetic acid, 5-[3,6-dihydro-3-methyl-2,6-dioxo-4-(trifluoromethyl)-1(2H)-pyrimidinyl]-alpha,alpha-dimethyl-, methyl ester] | 8.0 | 9.0 | 9.0 | 9.0 | 9.0 | 9.0 | 9.0 | 9.0 | 9.0 | 9.0 | 9.0 | 9.0 | 6.0 | 9.0 | 9.0 | 9.0 | 7.5 | 9.0 | 8.5 | 9.0 | CYPSE herbicidal rating ([2]; 0.0320 kg/ha): 9.0; CYPSE herbicidal rating ([2]; 0.0620 kg/ha): 9.0; CYPSE herbicidal rating ([2]; 0.1250 kg/ha): 9.0; CYPSE herbicidal rating ([2]; 0.2500 kg/ha): 9.0
